Results on one compound are retold here after PMC8536830 (Current Biology, 2021).

One experiment has as its target T1, LGC-50:MOD-1(363-397) (Caenorhabditis elegans, UniProt P41849).
T1 sequence (P41849 with tags, fused parts or gaps): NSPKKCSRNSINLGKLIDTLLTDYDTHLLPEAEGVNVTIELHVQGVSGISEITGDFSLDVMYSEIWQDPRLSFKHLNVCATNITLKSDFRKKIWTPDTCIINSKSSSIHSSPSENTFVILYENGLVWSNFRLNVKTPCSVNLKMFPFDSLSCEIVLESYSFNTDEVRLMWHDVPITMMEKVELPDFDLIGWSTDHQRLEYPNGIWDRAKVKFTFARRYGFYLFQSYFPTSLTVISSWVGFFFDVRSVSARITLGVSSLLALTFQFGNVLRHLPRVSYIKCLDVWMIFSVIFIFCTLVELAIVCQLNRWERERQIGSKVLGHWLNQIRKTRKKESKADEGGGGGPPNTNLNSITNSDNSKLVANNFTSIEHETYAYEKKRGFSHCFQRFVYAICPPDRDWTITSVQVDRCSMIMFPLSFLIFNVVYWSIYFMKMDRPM
T1 sequence (Q9GQ00 363-397 partner): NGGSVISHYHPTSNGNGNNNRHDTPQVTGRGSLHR
As to the kind of experiment: Two-electrode voltage clamp, 5-HT evoked dose response, LGC-50:MOD-1(363-397) chimera. Format: cell-based, C. elegans. The settings on record: Xenopus oocytes, TEVC. As to the method:
Defolliculated Xenopus laevis oocytes were obtained from EcoCyte Bioscience (Dortmund, Germany) and maintained in ND96 (in mM: 96 NaCl, 1 MgCl2, 5 HEPES, 1.8 CaCl2, 2 KCl) solution at 16°C for 3-5 days.
5'-capped cRNA was synthesized in vitro using the T3 mMessage mMachine transcription kit according to manufacturer’s protocol (Thermo Fischer Scientific, CA, USA). RNA was then purified using the GeneJET RNA purification kit (Thermo Fischer Scientific, CA, USA) prior to cRNA injection. Defolliculated Xenopus oocytes were placed individually into 96 well plates and injected with 50nL of 500ng/μL RNA using the Roboinject system (Multi Channel Systems GmbH, Reutlingen, Germany). […]
(§1) Two-electrode voltage clamp recordings were carried out using the Robocyte2 recording system or a manual TEVC set up, using an OC-725D amplifier (Multi Channel Systems, Reutlingen, Germany) and paired with a custom-made recording chamber and agar bridges from reference and bath electrodes. […] Data was recorded using WinWCP or RoboCyte2 control software, manual data was filtered at 10 Hz.
Dose response curves were calculated from the peak current during a 10 s agonist stimulation in ND96 solution, with a 60 s ND96 wash in between doses. […] Normalized dose response data was fitted to a nonlinear curve using a four parameters variable slope and the EC50 and Hill slope was calculated. […]

Experiment [1] deals with T2, LGC-50 S335D, T348D, S353A (Caenorhabditis elegans, UniProt P41849, S335D/S353A/).
T2 construct: Plasmid: KSM: lgc-50 (cDNA, S335D, T348A, S353A); expressed in transfected cells; host or cells: Xenopus laevis oocytes injected with cRNA (probably plasmid pIH134)
T2 sequence (P41849 20-491 S335D/T348A/S353A): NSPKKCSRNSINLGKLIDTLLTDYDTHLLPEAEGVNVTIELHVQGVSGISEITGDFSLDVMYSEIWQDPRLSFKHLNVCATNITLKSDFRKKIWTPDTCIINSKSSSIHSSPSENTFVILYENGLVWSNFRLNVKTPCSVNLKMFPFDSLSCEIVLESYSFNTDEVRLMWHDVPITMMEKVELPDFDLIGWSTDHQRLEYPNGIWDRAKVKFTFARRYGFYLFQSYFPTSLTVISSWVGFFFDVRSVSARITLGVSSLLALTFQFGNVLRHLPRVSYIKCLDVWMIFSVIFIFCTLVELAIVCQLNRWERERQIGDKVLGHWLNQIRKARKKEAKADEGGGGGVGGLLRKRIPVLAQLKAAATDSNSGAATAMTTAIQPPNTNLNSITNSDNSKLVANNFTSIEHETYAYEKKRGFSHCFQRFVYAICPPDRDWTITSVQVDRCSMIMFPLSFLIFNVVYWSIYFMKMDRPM
As to the kind of experiment: Two-electrode voltage clamp, 5-HT evoked dose response, LGC-50 phosphomimic mutant. In kind it is cell-based, C. elegans.
From the text: In addition to this region, we also investigated three upstream predicted phosphorylation sites. Phosphorylation of the M3/4 loop has previously been implicated in the trafficking and cell surface recycling of GABAA receptors.[23]^,[24] The first site in the M3/4 loop of LGC-50, S335, is predicted to be a cdc2 site, and T348 and S353 are predicted protein kinase C (PKC) or PKA sites (Table S2).[25]^,[26] We introduced both phosphorylation-dead alanine mutations and phosphomimic aspartate mutations into these sites to assess their effect on receptor trafficking. […]
as §1
Dose response curves were calculated from the peak current during a 10 s agonist stimulation in ND96 solution, with a 60 s ND96 wash in between doses. […] Normalized dose response data was fitted to a nonlinear curve using a four parameters variable slope and the EC50 and Hill slope was calculated. […] Kinetic measurements were calculated from a 60 s agonist perfusion. […]
(In general: In two-electrode clamp one electrode senses voltage and the other passes current.)

For the compound `NCCc1c[nH]c2ccc(O)cc12` [5-HT, serotonin], the concentration giving a half-maximal response (EC50) – broadly, the concentration at which the effect is half-maximal – at LGC-50:MOD-1(363-397) was found to be 980 nM; in experiment [1], 720 nM.
